From ChEMBL document CHEMBL1125705, “Imidazo[4,5-b]quinoxaline cyanines as neurokinin antagonists” (J Med Chem, 1991)

Target: Substance-P receptor (Rattus norvegicus, UniProt P14600)
Experiment: Binding affinity for tachykinin receptor 1 from rat forebrain tissue, [125I]-BH-SP as radioligand

Chain of Substance-P receptor (P14600 whole entry): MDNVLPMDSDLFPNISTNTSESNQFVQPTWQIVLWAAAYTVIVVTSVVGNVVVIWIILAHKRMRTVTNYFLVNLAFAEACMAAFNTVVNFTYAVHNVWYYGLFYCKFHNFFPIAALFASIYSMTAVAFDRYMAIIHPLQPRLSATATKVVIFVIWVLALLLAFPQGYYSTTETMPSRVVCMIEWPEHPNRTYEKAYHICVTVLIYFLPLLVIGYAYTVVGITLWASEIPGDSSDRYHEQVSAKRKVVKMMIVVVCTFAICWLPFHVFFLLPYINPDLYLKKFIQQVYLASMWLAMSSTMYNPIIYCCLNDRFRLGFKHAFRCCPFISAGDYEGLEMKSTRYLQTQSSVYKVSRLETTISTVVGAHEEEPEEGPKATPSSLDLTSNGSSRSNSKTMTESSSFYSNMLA

SMILES | IC50 [nM]
CCOC(=O)CCC[n+]1c(/C=C/C=C2/N(C)c3ccccc3C2(C)C)n(CC)c2nc3ccccc3nc21 | 850
CCn1c(/C=C/C=C2/N(C)c3ccccc3C2(C)C)[n+](CCCN(C)C)c2nc3ccccc3nc21 | 1300
CCn1c(/C=C/C=C2/N(C)c3ccccc3C2(C)C)[n+](CCCC(=O)O)c2nc3ccccc3nc21 | 1400
CCn1c(/C=C/C=C2\Sc3ccccc3N2C)[n+](CC)c2nc3ccccc3nc21 | 700
CCn1c(/C=C/C=C2/N(C)c3ccccc3C2(C)C)[n+](CCCO)c2nc3ccccc3nc21 | 350
CCn1c(/C=C/C=C2/N(C)c3ccccc3C2(C)C)[n+](CC(N)=O)c2nc3ccccc3nc21 | 2000
CCn1c(/C=C/C=C2/N(CC(=O)N(C)C)c3ccccc3C2(C)C)[n+](CC)c2nc3ccccc3nc21 | 2600

Other lines, results leading:

IC50 [nM] | SMILES
390 | CCN1/C(=C/C=C/c2n(CC)c3nc4ccccc4nc3[n+]2CC)C(C)(C)c2ccccc21
> 10000 | CCn1c(/C=C/C=C/N2CCCC2)[n+](CC)c2nc3ccccc3nc21
1000 | CCn1c(/C=C/C=C2/N(CCO)c3ccccc3C2(C)C)[n+](CC)c2nc3ccccc3nc21
850 | CCn1c(/C=C/C=C2\C3C=CCc4cccc(c43)N2C)[n+](CC)c2nc3ccccc3nc21 (stereo not given)
1100 | CCn1c(/C=C/C=C2/N(C)c3ccccc3C2(C)C)[n+](CC)c2nc3cc(Cl)c(Cl)cc3nc21
410 | CCn1c(/C=C/C=C2/N(C)c3ccccc3C2(C)C)[n+](CCCOC(C)=O)c2nc3ccccc3nc21

Target: T1, Substance-K receptor (Rattus norvegicus, UniProt P16610)
T1 sequence (P16610 whole entry): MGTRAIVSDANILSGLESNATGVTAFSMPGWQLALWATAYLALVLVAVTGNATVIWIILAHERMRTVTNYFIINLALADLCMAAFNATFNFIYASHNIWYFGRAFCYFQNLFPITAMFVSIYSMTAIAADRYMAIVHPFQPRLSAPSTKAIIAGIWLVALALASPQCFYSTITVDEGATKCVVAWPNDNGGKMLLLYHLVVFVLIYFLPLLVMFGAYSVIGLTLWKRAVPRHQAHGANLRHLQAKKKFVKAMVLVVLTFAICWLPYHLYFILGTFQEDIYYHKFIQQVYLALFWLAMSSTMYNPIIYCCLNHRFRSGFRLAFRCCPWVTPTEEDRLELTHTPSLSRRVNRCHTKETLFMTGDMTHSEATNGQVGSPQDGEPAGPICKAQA
Experiment: Binding affinity of compound was evaluated towards tachykinin receptor 2 by using radioligand ([125I]-NKA in rat duodenum

IC50 [nM] | SMILES
1700 | CCn1c(/C=C/C=C2\N(C)c3ccccc3C2(C)C)[n+](CC)c2nc3ccccc3nc21

Target: T2, Neuromedin-K receptor (Rattus norvegicus, UniProt P16177)
T2 sequence (P16177 whole entry): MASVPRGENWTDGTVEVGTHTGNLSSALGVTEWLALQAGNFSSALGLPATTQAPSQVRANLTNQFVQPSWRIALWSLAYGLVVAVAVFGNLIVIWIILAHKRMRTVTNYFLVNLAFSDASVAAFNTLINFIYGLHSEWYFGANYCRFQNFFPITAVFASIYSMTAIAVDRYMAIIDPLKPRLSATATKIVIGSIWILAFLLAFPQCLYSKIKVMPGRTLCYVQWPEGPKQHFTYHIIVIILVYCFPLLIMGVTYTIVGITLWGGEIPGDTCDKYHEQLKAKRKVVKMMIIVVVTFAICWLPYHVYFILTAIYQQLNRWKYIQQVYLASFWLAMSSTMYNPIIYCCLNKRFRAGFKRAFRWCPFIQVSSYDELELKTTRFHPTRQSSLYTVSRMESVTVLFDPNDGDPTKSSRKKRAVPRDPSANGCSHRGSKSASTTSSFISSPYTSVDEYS
Experiment: Binding affinity of compound was evaluated towards tachykinin receptor 3 by using radioligand [[…]]eledoisin in rat cortex

IC50 [nM] | SMILES
3300 | CCn1c(/C=C/C=C2\N(C)c3ccccc3C2(C)C)[n+](CC)c2nc3ccccc3nc21
